Test [1] relates to invasion of colorectal cancer cells. Briefly: In vivo relative invation (invasion; EV and KITENIN controls, no method described). Particulars: relative to EV (=1); KIT = KITENIN.
A further test has as its system KAI1 promoter. Put plainly: KAI1 promoter luciferase reporter assay in transfected Caco2 cells. It is filed as cell-based, human. Particulars: Homo sapiens, Caco-2, 16 h, 1 μM compound, 16 hours, transfected Caco2 cells, luciferase activity relative to DMSO control (=1); read-out: Relative KAI promoter activity.

Here are results for 34 compounds from patent US20230150924A1, “NOVEL COMPOUND HAVING CANCER METASTASIS INHIBITORY ACTIVITY, PREPARATION METHOD THEREFOR, AND PHARMACEUTICAL COMPOSITION FOR INHIBITING CANCER METASTASIS AND INVASION OR TREATING COLORECTAL CANCER, COMPRISING COMPOUND” (CELLGENTEK CO., LTD., priority 2019, published 2023).

In the case of `CCN(CC)Cc1cccc(C(=O)NCC(=O)c2ccccc2)c1` [Example 247, 3-((diethylamino)methyl)-N-(2-oxo-2-phenylethyl)benzamide], in test [1], the “In vivo relative invation” value is listed as 1.124. For the same compound, the fold induction at 1 µM in the test with KAI1 promoter was determined as 1.27.

Regarding `CCCN(CCC)Cc1cccc(C(=O)NCC(=O)c2ccccc2)c1` [Example 248, 3-((dipropylamino)methyl)-N-(2-oxo-2-phenylethyl)benzamide], the “In vivo relative invation” value in test [1] is recorded as 1.116. In addition, the fold induction at 1 µM with KAI1 promoter amounted to 1.3.

Consider `CCCCN(CC)Cc1cccc(C(=O)NCC(=O)c2ccccc2)c1` [Example 249, 3-((butyl(ethyl)amino)methyl)-N-(2-oxo-2-phenylethyl)benzamide], for which the “In vivo relative invation” value in test [1] stood at 1.113. Also, in the test with KAI1 promoter, the fold induction at 1 µM was determined as 1.35.

Consider `CCCCCN(CCCCC)Cc1cccc(C(=O)NCC(=O)c2ccccc2)c1` [Example 250, 3-((dipentylamino)methyl)-N-(2-oxo-2-phenylethyl)benzamide], for which the “In vivo relative invation” value in test [1] is reported as 0.9781. In addition, in the test on KAI1 promoter, the fold induction at 1 µM worked out at 1.25.

With `C#CN(C)Cc1cccc(C(=O)NCC(=O)c2ccccc2)c1` [Example 251, 3-((ethynyl(methyl)amino)methyl)-N-(2-oxo-2-phenylethyl)benzamide], in test [1], the “In vivo relative invation” value is listed as 1.197. Moreover, the fold induction at 1 µM in the test with KAI1 promoter came out at 2.37.

In the case of `O=C(CNC(=O)c1cccc(CN2CCOCC2)c1)c1ccccc1` [Example 252, 3-(morpholinomethyl)-N-(2-oxo-2-phenylethyl)benzamide], the “In vivo relative invation” value in test [1] was found to be 1.165. Besides, the fold induction at 1 µM with KAI1 promoter came to 1.56.

For the compound `CN1CCN(Cc2cccc(C(=O)NCC(=O)c3ccccc3)c2)CC1` [Example 253, 3-((4-methylpiperazin-1-yl)methyl)-N-(2-oxo-2-phenylethyl)benzamide], in test [1], the “In vivo relative invation” value stood at 1.421. Besides, the fold induction at 1 µM in the test with KAI1 promoter came to 0.963.

`O=C(CNC(=O)c1ccc(CN2CCc3ccccc3C2)cc1)c1ccccc1` [Example 254, 4-((3,4-dihydroisoquinolin-2(1H)-yl)methyl)-N-(2-oxo-2-phenylethyl)benzamide]: in test [1], the “In vivo relative invation” value is 0.9143. Further, the fold induction at 1 µM in the test on KAI1 promoter is 2.08.

In the case of `CC(C)N(C)Cc1ccc(C(=O)NCC(=O)c2ccccc2)cc1` [Example 256, 4-((isopropyl(methyl)amino)methyl)-N-(2-oxo-2-phenylethyl)benzamide], the “In vivo relative invation” value in test [1] was 1.267. For the same compound, the fold induction at 1 µM in the test on KAI1 promoter was found to be 2.25.

`O=C(CNC(=O)c1ccc(CN2CCN(c3ccccc3F)CC2)cc1)c1ccccc1` [Example 257, 4-((4-(2-fluorophenyl)piperazin-1-yl)methyl)-N-(2-oxo-2-phenylethyl)benzamide]: the “In vivo relative invation” value in test [1] was found to be 1.338. In addition, the fold induction at 1 µM in the test with KAI1 promoter was 1.36.

As for `O=C(CNC(=O)c1ccc(CN2CCN(c3ncccn3)CC2)cc1)c1ccccc1` [Example 258, N-(2-oxo-2-phenylethyl)-4-((4-(pyrimidin-2-yl)piperazin-1-yl)methyl)benzamide], the “In vivo relative invation” value in test [1] is on record as 1.223. In the test on KAI1 promoter, the fold induction at 1 µM came to 2.31.

`COc1ccccc1N1CCN(Cc2ccc(C(=O)NCC(=O)c3ccccc3)cc2)CC1` [Example 259, 4-((4-(2-methoxyphenyl)piperazin-1-yl)methyl)-N-(2-oxo-2-phenylethyl)benzamide]: the “In vivo relative invation” value in test [1] came out at 1.251. For the same compound, the fold induction at 1 µM in the test with KAI1 promoter is 1.23.

With `O=C(CNC(=O)c1ccc(CN2CCC(N3CCCCC3)CC2)cc1)c1ccccc1` [Example 260, 4-([1,4′-bipiperidin]-1′-ylmethyl)-N-(2-oxo-2-phenylethyl)benzamide], in test [1], the “In vivo relative invation” value is 1.092. The fold induction at 1 µM in the test on KAI1 promoter worked out at 1.33.

Turning to `O=C(CNC(=O)c1ccc(CN2CCN(c3ccc([N+](=O)[O-])cc3)CC2)cc1)c1ccccc1` [Example 261, 4-((4-(4-nitrophenyl)piperazin-1-yl)methyl)-N-(2-oxo-2-phenylethyl)benzamide], the “In vivo relative invation” value in test [1] worked out at 1.197. The fold induction at 1 µM in the test on KAI1 promoter was found to be 1.25.

Consider `CN(Cc1ccc(C(=O)NCC(=O)c2ccccc2)cc1)c1ccccc1` [Example 262, 4-((methyl (phenyl)amino)methyl)-N-(2-oxo-2-phenylethyl)benzamide], for which the “In vivo relative invation” value in test [1] stood at 1.09. Also, the fold induction at 1 µM with KAI1 promoter is 1.54.

With `CCN(Cc1ccc(C(=O)NCC(=O)c2ccccc2)cc1)c1ccccc1` [Example 263, 4-((ethyl(phenyl)amino)methyl)-N-(2-oxo-2-phenylethyl)benzamide], in test [1], the “In vivo relative invation” value turned out to be 1.301. Moreover, the fold induction at 1 µM in the test on KAI1 promoter came out at 2.23.

In the case of `O=C(CNC(=O)c1ccc(CN2CCN(c3ccccn3)CC2)cc1)c1ccccc1` [Example 264, N-(2-oxo-2-phenylethyl)-4-((4-(pyridin-2-yl)piperazin-1-yl)methyl)benzamide], the “In vivo relative invation” value in test [1] was 1.199. Further, in the test on KAI1 promoter, the fold induction at 1 µM turned out to be 1.91.

In the case of `C=CCN(CC=C)Cc1ccc(C(=O)NCC(=O)c2ccccc2)cc1` [Example 265, 4-((diallylamino)methyl)-N-(2-oxo-2-phenylethyl)benzamide], the “In vivo relative invation” value in test [1] is reported as 1.343. In addition, in the test on KAI1 promoter, the fold induction at 1 µM worked out at 1.91.

For the compound `CN(Cc1ccccc1)Cc1ccc(C(=O)NCC(=O)c2ccccc2)cc1` [Example 266, 4-((benzyl(methyl)amino)methyl)-N-(2-oxo-2-phenylethyl)benzamide], the “In vivo relative invation” value in test [1] is recorded as 1.401. The fold induction at 1 µM in the test on KAI1 promoter stood at 2.21.

In the case of `CN(CCO)Cc1ccc(C(=O)NCC(=O)c2ccccc2)cc1` [Example 267, 4-(((2-hydroxyethyl) (methyl)amino)methyl)-N-(2-oxo-2-phenylethyl)benzamide], the “In vivo relative invation” value in test [1] is recorded as 0.9046. Besides, in the test on KAI1 promoter, the fold induction at 1 µM was found to be 3.56.

With `CCCCN(CCO)Cc1ccc(C(=O)NCC(=O)c2ccccc2)cc1` [Example 268, 4-((butyl(2-hydroxyethyl)amino)methyl)-N-(2-oxo-2-phenylethyl)benzamide], the “In vivo relative invation” value in test [1] turned out to be 1.22. Moreover, the fold induction at 1 µM in the test with KAI1 promoter came to 1.6.

Regarding `CC(C)(C)OC(=O)N1CCN(Cc2ccc(C(=O)NCC(=O)c3ccccc3)cc2)CC1` [Example 269, tert-butyl 4-(4-((2-oxo-2-phenylethyl)carbamoyl)benzyl) piperazine-1-carboxylate], the “In vivo relative invation” value in test [1] worked out at 1.163. Moreover, the fold induction at 1 µM in the test on KAI1 promoter is 1.38.

As to `O=C(CNC(=O)c1ccc(CN(C2CCCCC2)C2CCCCC2)cc1)c1ccccc1` [Example 270, 4-((dicyclohexylamino)methyl)-N-(2-oxo-2-phenylethyl)benzamide], the “In vivo relative invation” value in test [1] is 1.238. For the same compound, the fold induction at 1 µM with KAI1 promoter was determined as 1.47.

Turning to `CCCCN(C)Cc1ccc(C(=O)NCC(=O)c2ccccc2)cc1` [Example 271, 4-((butyl (methyl)amino)methyl)-N-(2-oxo-2-phenylethyl)benzamide], the “In vivo relative invation” value in test [1] stood at 1.228. For the same compound, in the test with KAI1 promoter, the fold induction at 1 µM stood at 1.31.

In the case of `CCCN(CCC)Cc1ccc(C(=O)NCC(=O)c2ccccc2)cc1` [Example 272, 4-((dipropylamino)methyl)-N-(2-oxo-2-phenylethyl)benzamide], the “In vivo relative invation” value in test [1] stood at 1.23. For the same compound, in the test on KAI1 promoter, the fold induction at 1 µM came out at 1.59.

`CCCCN(CC)Cc1ccc(C(=O)NCC(=O)c2ccccc2)cc1` [Example 273, 4-((butyl(ethyl)amino)methyl)-N-(2-oxo-2-phenylethyl)benzamide]: in test [1], the “In vivo relative invation” value came out at 1.171. Also, the fold induction at 1 µM in the test on KAI1 promoter stood at 1.2.

With `CCN(CCO)Cc1ccc(C(=O)NCC(=O)c2ccccc2)cc1` [Example 274, 4-((ethyl(2-hydroxyethyl)amino)methyl)-N-(2-oxo-2-phenylethyl)benzamide], the “In vivo relative invation” value in test [1] is 1.219. Further, the fold induction at 1 µM with KAI1 promoter amounted to 5.27.

`C#CN(C)Cc1ccc(C(=O)NCC(=O)c2ccccc2)cc1` [Example 275, 4-((ethynyl(methyl)amino)methyl)-N-(2-oxo-2-phenylethyl)benzamide]: the “In vivo relative invation” value in test [1] amounted to 1.146. The fold induction at 1 µM in the test on KAI1 promoter stood at 6.85.

`O=C(CNC(=O)c1ccc(CN2CCOCC2)cc1)c1ccccc1` [Example 276, 4-(morpholinomethyl)-N-(2-oxo-2-phenylethyl)benzamide]: in test [1], the “In vivo relative invation” value came to 1.224. For the same compound, the fold induction at 1 µM with KAI1 promoter came to 3.39.

On to `CCOC(=O)N1CCN(Cc2ccc(C(=O)NCC(=O)c3ccccc3)cc2)CC1` [Example 277, ethyl 4-(4-((2-oxo-2-phenylethyl)carbamoyl)benzyl)piperazine-1-carboxylate], for which the “In vivo relative invation” value in test [1] is on record as 1.126. Besides, in the test on KAI1 promoter, the fold induction at 1 µM was 1.3.

In the case of `CC1CN(Cc2ccc(C(=O)NCC(=O)c3ccccc3)cc2)CC(C)O1` (centres unmarked) [Example 278, 4-((2,6-dimethylmorpholino)methyl)-N-(2-oxo-2-phenylethyl)benzamide], in test [1], the “In vivo relative invation” value was 1.217. In addition, in the test with KAI1 promoter, the fold induction at 1 µM is 1.38.

For `COc1cccc(C(=O)CNC(=O)c2cccc(CN3CCc4ccccc4C3)c2)c1` [Example 279, 3-((3,4-dihydroisoquinolin-2(1H)-yl)methyl)-N-(2-(3-methoxyphenyl)-2-oxoethyl)benzamide], the “In vivo relative invation” value in test [1] was 1.187. For the same compound, the fold induction at 1 µM in the test with KAI1 promoter is 2.28.

`COc1cccc(C(=O)CNC(=O)c2cccc(CN(C)C3CCCCC3)c2)c1` [Example 280, 3-((cyclohexyl(methyl)amino)methyl)-N-(2-(3-methoxyphenyl)-2-oxoethyl)benzamide]: in test [1], the “In vivo relative invation” value is on record as 1.195. Besides, the fold induction at 1 µM with KAI1 promoter came out at 1.63.

For the compound `COc1cccc(C(=O)CNC(=O)c2cccc(CC3CCN(c4ccccc4F)CC3)c2)c1` [Example 281, 3-((1-(2-fluorophenyl)piperidin-4-yl)methyl)-N-(2-(3-methoxyphenyl)-2-oxoethyl)benzamide], in test [1], the “In vivo relative invation” value is recorded as 1.236. Also, the fold induction at 1 µM with KAI1 promoter stood at 1.52.
